Values after ≈ are worked out from the molar mass of the structure shown. Like-named read-outs stand apart in the source and are kept apart here.
What was measured:
AChE [1] = biological target: T1, AChE (Homo sapiens, UniProt P22303); assay: biochemical; conditions: for inhibition at 100 µg/mL: read-out: ChE Inhibition (Inhibition % ± S.D. at 100 µg/mL) AChE
Experimental: (§1) Inhibition of AChE and BChE was determined by Ellman’s method with slight modifications. To the reaction mixture, 140 µL of […] sodium phosphate buffer (pH 8), 20 µL of DTNB, 20 µL of enzyme (either AChE or BChE) and 20 µL of the samples to be tested was added later incubated for 15 min at 25 °C. About 10 µL of […] or butyrylthiocholine chloride which act as substrates to react with DTNB forming 5-thio-2-nitrobenzoate anion, that formed a yellow-colored complex, was added into the incubated sample. The absorbance is measured at 417 nm using a 96-well ELISA microplate reader (VersaMax, Molecular Devices, San Jose, CA, USA) Galanthamine was used the reference drug.
(§2) The measurements and calculations were evaluated by using Softmax PRO 4.3.2.LS software. Percentage of inhibition of AChE/BChE/TYR was determined by comparison of rates of reaction of test samples relative to blank samples. Extent of the enzymatic reaction was calculated based on the following equation: I% = (C-T)/C × 100, where I% is the activity of the enzyme as percent inhibition. E value expresses the effect of the test sample or the positive control on AChE/BChE/TYR enzyme activity articulated as the percentage of the remaining activity in the presence of test sample or positive control. C value is the absorbance of the control solvent (blank) in the presence of enzyme, where T is the absorbance of the tested sample (plant extract or positive control in the solvent) in the presence of enzyme.

BChE [2] = biological target: T2, BChE (Homo sapiens, UniProt P06276); assay: Microtiter (Ellman) assay for BChE inhibition; type: biochemical; conditions: for inhibition at 100 µg/mL: read-out: ChE Inhibition (Inhibition % ± S.D. at 100 µg/mL) BChE
Experimental: as §1, §2

[3] = test system: AChE of electric eel origin; conditions: cited from earlier work
AChE [4] = biological target: T1, AChE; conditions: cited from earlier work
BChE [5] = biological target: T2, BChE; conditions: cited from earlier work
[6] = at 100 µg/mL, n: 3, '-' = No inhibition
[7] = at 100 μg/mL, from Verbascum xanthophoeniceum and V. mucronatum

T2 sequence (P06276 29-602): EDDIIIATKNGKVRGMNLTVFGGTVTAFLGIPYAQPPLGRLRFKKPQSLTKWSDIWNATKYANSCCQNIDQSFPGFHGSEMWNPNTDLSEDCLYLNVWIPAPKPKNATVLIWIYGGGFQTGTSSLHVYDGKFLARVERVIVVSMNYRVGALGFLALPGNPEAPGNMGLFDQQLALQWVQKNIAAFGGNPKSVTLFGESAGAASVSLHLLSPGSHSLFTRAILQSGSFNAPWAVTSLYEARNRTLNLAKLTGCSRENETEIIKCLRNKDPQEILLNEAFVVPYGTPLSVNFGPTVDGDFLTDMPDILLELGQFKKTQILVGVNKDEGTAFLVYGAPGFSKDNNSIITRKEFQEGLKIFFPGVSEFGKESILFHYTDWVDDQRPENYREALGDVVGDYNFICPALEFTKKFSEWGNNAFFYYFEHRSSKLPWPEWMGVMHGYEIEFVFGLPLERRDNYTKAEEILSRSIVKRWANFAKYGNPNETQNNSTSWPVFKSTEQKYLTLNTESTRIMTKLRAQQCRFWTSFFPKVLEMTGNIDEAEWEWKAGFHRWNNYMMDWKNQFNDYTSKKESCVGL
T1 sequence (P22303 32-614): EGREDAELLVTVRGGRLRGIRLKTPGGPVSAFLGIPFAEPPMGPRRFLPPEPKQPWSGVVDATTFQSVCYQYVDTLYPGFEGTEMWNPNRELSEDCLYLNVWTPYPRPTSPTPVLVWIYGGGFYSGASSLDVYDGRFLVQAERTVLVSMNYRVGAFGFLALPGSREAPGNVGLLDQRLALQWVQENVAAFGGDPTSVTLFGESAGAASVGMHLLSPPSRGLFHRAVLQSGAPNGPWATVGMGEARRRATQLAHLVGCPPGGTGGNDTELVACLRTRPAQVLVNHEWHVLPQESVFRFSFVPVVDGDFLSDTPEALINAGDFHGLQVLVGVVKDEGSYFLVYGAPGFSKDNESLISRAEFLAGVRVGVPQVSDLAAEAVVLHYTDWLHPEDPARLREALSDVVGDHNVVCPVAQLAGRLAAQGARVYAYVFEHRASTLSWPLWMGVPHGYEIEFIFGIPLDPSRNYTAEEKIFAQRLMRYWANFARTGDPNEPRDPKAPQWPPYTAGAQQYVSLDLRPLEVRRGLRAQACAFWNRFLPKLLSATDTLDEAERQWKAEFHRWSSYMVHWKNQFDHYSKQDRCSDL

Compound | inhibition at 100 µg/mL (AChE [1]; [6]) [%] | inhibition at 100 µg/mL (BChE [2]) [%] | further results
COc1cc(C=CC(=O)OC2C(COC3OCC(O)(CO)C3O)OC(OCCc3ccc(O)c(O)c3)C(O)C2OC2OC(C)C(O)C(O)C2O)ccc1O (stereo not drawn) [Alyssonoside] | < 0 | – | inhibition at 100 µg/mL (BChE [2]; [6]): 13 ± 2.07%
CC(C)(O)[C@@H]1CC[C@](C)([C@H]2[C@@H](O)C[C@@]3(C)[C@@H]4C[C@H](O[C@@H]5O[C@H](CO)[C@@H](O)[C@H](O)[C@H]5O)[C@H]5C(C)(C)[C@@H](O[C@@H]6OC[C@@H](O)[C@H](O)[C@H]6O)CC[C@@]56C[C@@]46CC[C@]23C)O1 [Astragaloside IV] | 4.8 ± 0.05 | 6.62 ± 2.72 | –
CC(=O)OC1C(O)COC(OC2CCC34CC35CCC3(C)C(C6(C)CCC(C(C)(C)O)O6)C(O)CC3(C)C5CC(OC3OC(CO)C(O)C(O)C3O)C4C2(C)C)C1OC(C)=O (stereo not drawn) [Astragaloside I] | < 0 | 8.38 ± 1.28 | –
CC(C)(O)[C@@H]1CC[C@](C)([C@H]2[C@@H](O)C[C@@]3(C)[C@@H]4C[C@H](O[C@@H]5O[C@H](CO)[C@@H](O)[C@H](O)[C@H]5O)[C@H]5C(C)(C)[C@@H](O[C@@H]6OC[C@@H](O)[C@H](O)[C@H]6O[C@@H]6O[C@H](CO)[C@@H](O)[C@H](O)[C@H]6O)CC[C@@]56C[C@@]46CC[C@]23C)O1 [Astragaloside VI] | 6.23 ± 2.82 | 7.72 ± 0.53 | –
CC(=O)OC1C(O)COC(OC2CCC34CC35CCC3(C)C(C6(C)CCC(C(C)(C)O)O6)C(O)CC3(C)C5CC(OC3OCC(O)C(O)C3O)C4C2(C)C)C1OC(C)=O (stereo not drawn) [Astrasieversianin II] | 8.01 ± 0.48 | 13.6 ± 1.79 | –
CC(C)(O)C1CCC(C)(C2C(O)CC3(C)C4CC(OC5OCC(O)C(O)C5O)C5C(C)(C)C(OC6OCC(O)C(O)C6O)CCC56CC46CCC23C)O1 (stereo not drawn) [Astrasieversianin X] | 8.6 ± 0.91 | 10.1 ± 2.34 | –
CC(CCC(O)C(C)(C)O)C1C(O)CC2(C)C3CC(OC4OC(CO)C(O)C(O)C4O)C4C(C)(C)C(OC5OCC(O)C(O)C5O)CCC45CC35CCC12C (stereo not drawn) [Cyclocanthoside E] | 2.18 ± 1.81 | 5.35 ± 1.82 | –
CC(CCC(O)C(C)(C)O)C1C(O)CC2(C)C3CC(OC4OC(CO)C(O)C(O)C4O)C4C(C)(C)C(OC5OCC(O)C(O)C5OC5OC(CO)C(O)C(O)C5O)CCC45CC35CCC12C (stereo not drawn) [Cyclocanthoside G] | 6.85 ± 0.72 | 8.23 ± 0.24 | –
C[C@@H]1CC[C@@]2(OC1)O[C@H]1C[C@H]3[C@@H]4CC=C5C[C@@H](O)CC[C@]5(C)[C@H]4CC[C@]3(C)[C@H]1[C@@H]2C [Diosgenin] | 4.31 ± 0.37 | 8.12 ± 2.64 | IC50 AChE [3]: 103.60 µg/mL (≈ 250 µM)
COc1ccc2c3c1O[C@H]1C[C@@H](O)C=C[C@@]31CCN(C)C2 [Galanthamine HBr, reference compound] | – | 60.3 ± 1.36 | –
C[C@@H]1CC[C@@]2(OC1)O[C@H]1C[C@H]3[C@@H]4CC[C@H]5C[C@@H](O)CC[C@]5(C)[C@H]4CC(=O)[C@]3(C)[C@H]1[C@@H]2C [Hecogenin] | 25 | 17.3 ± 1.84 | ChE Inhibition (Inhibition % ± S.D. at 100 µg/mL) AChE (AChE [1]; [6]): 25.36 ± 1.11%
COC(=O)C1=COC(OC2OC(CO)C(O)C(O)C2O)C2C(C)(O)CCC12O (stereo not drawn) [Ipolamide] | < 0 | – | inhibition at 100 µg/mL (BChE [2]; [6]): 12.4 ± 2.28%
COc1cc2nc3occc3c(OC)c2cc1OC [Kokusaginine] | 62.4 ± 3.2 | – | IC50 (AChE [1]): 271 µM; IC50 (BChE [2]): 237 µM; inhibition at 100 µg/mL (BChE [2]; [6]): 67.4 ± 3.1%
COC(=O)C1=COC(OC2OC(CO)C(O)C(O)C2O)C2C1(O)CC(O)C2(C)O (stereo not drawn) [Lamiide] | < 0 | – | inhibition at 100 µg/mL (BChE [2]; [6]): 8.77 ± 0.92%
O=C(O)C1OC(Oc2cc(O)c3c(=O)cc(-c4ccc(O)c(O)c4)oc3c2)C(O)C(O)C1O (stereo not drawn) [Luteolin-7-O-glucuronide] | < 0 | < 0 | –
CC(=O)OC1C(OC(CCC(C)C2CCC3(C)C4C(O)CC5C(C)(C)C(OC6OC(C)C(O)C(O)C6O)CC(O)C56CC46CCC23C)C(C)(C)O)OCC(O)C1O (stereo not drawn) [Macrophyllosaponin A] | 9.69 ± 0.85 | 12.2 ± 1.83 | –
CC(CCC(OC1OCC(O)C(O)C1O)C(C)(C)O)C1CCC2(C)C3C(O)CC4C(C)(C)C(OC5OC(C)C(O)C(O)C5O)CC(O)C45CC35CCC12C (stereo not drawn) [Macrophyllosaponin B] | 13.2 ± 0.92 | 12.2 ± 1.16 | –
CC(CCC(O)C(C)(C)OC1OCC(O)C(O)C1O)C1CCC2(C)C3C(O)CC4C(C)(C)C(OC5OC(C)C(O)C(O)C5O)CC(O)C45CC35CCC12C (stereo not drawn) [Macrophyllosaponin C] | 12.4 ± 1.4 | 16.5 ± 1.57 | –
CC(CCC(OC1OCC(O)C(O)C1OC1OCC(O)C(O)C1O)C(C)(C)O)C1CCC2(C)C3C(O)CC4C(C)(C)C(OC5OC(C)C(O)C(O)C5O)CC(O)C45CC35CCC12C (stereo not drawn) [Macrophyllosaponin D] | 4.31 ± 1.32 | 10.1 ± 0.78 | –
COC(=O)[C@@H](Cc1ccc(O)c(O)c1)OC(=O)/C=C/c1ccc(O)c(O)c1 [Methyl rosmarinate] | 16.8 ± 3.84 | – | IC50 (BChE [2]): 111 µM; inhibition at 100 µg/mL (BChE [2]; [6]): 82.74 ± 0.62%
CC1CCC2(OC1)OC1CC3C4CCC5CC(O)CCC5(C)C4CC(O)C3(C)C1C2C (stereo not drawn) [Rockogenin] | – | 15.2 ± 2.56 | inhibition at 100 µg/mL (AChE [1]): 5.29 ± 0.52%
C[C@@H]1CC[C@@]2(OC1)O[C@H]1C[C@H]3[C@@H]4CC[C@@H]5C[C@@H](O)CC[C@]5(C)[C@H]4CC[C@]3(C)[C@H]1[C@@H]2C [Smilagenin] | 62.4 ± 2.44 | 15 ± 3.01 | IC50 (AChE [1]): 104 µM; IC50 (AChE [4]; read-out: IC50 AChE, compound isolated from Asparagus racemosus): 9.9 µM; IC50 (BChE [5]; compound isolated from Asparagus racemosus): 5.4 µM
C[C@@H]1CC[C@@]2(OC1)O[C@H]1C[C@H]3[C@@H]4CC[C@H]5C[C@@H](O)CC[C@]5(C)[C@H]4CC[C@]3(C)[C@H]1[C@@H]2C [Tigogenin] | 17 | 22.2 ± 3.09 | ChE Inhibition (Inhibition % ± S.D. at 100 µg/mL) AChE (AChE [1]; [6]): 17.09 ± 0.69%
C[C@@H]1O[C@@H](O[C@@H]2[C@@H](O)[C@H](OCCc3ccc(O)c(O)c3)O[C@H](CO)[C@H]2OC(=O)/C=C/c2ccc(O)c(O)c2)[C@H](O)[C@H](O)[C@H]1O [Verbascoside] | 8.12 ± 1.49 | 22.2 ± 2.54 | IC50 (AChE [4]; Calceolaria talcana study, read-out: IC50 AChE (converted)): 304 µM; AChE inhibition (AChE [4]; at 100 μg/mL, from Pseuderanthemum carruthersii): < 50%; ChE inhibition (AChE) (AChE [4]; [7]): below 30%; inhibition against AChE (AChE [4]; isolated from Olea europea L.): no inhibition; IC50 (BChE [5]; Calceolaria talcana study): 170 µM; ChE inhibition (BChE) (BChE [5]; [7]): below 30%; inhibition against BChE (BChE [5]; isolated from Olea europea L.): no inhibition
Forsythoside B | – | – | ChE Inhibition (Inhibition % ± S.D. at 100 µg/mL) BChE (BChE [2]; [6]): 14.80 ± 2.31%; AChE inhibition (AChE [4]; Calceolaria talcana study): no AChE inhibition
tannic acid [reference compound] | – | – | IC50 AChE [3]: 0.10 µg/mL
